According to patent US20120129842A1, “BISTHIAZOLE INHIBITORS OF PRO-MATRIX METALLOPROTEINASE ACTIVATION” (priority 2010, published 2012):

Biological target: T1, MMP9 mediated gelatinase activity (Rattus norvegicus, UniProt P50282)
T1 construct: from tissue; host or cells: liver cryosections of female Lewis rats
Assay: Liver in situ zymography of SCW-induced rats dosed with compound
Format: in vivo
Settings: for Intensity (RLU × 10^6) Rat 1 / Intensity (RLU × 10^6) Rat 2 / Intensity (RLU × 10^6) Rat 3 / Intensity (RLU × 10^6) Mean: Day 25-28, liver; for Intensity (RLU × 10^6) Mean: n=3
Source text: In situ zymography provides an alternative approach to assess active MMP9 in tissues (Frederiks). Tissue sections are overlain with fluorescene-conjugated gelatin wherein the conjugation is sufficiently dense to cause the fluorescene to be dye-quenched (DQ). Proteolytic degradation of the DQ-gelatin releases the fluorescene from the quenching effect giving rise to bright green fluorescence at the site of degradation. Because in situ zymography requires the use of frozen sections, calcified tissues are problematic. However, an additional feature of the SCW arthritis model is the development of hepatic granulomatous disease (J Immunol; 1986; 137:2199-2209), and MMP9 reportedly plays a role in macrophage recruitment in the granulomas response to mycobacteria (Infect Immun; 2006; 74:6135-6144). Consequently, granulomatous livers from SCW-treated rats were assessed for active MMP9 by in situ zymography.
As described above, Female Lewis (LEW/N) rats, 5-6 weeks of age (80-100 g) were injected (i.p.) with saline or SCW PG-PS. On day 28, when the granulomatous response was well established, animals were sacrificed and livers were frozen in OCT cryo-sectioning medium and 10 μm sections were cut on a Cryome HM 500 M cryotome and mounted on glass microscope slides. Sections were air dried briefly. MMP9 was confirmed as the source of the gelatinase activity in the liver by treating liver sections with monoclonal antibodies directed against the active site of the two major gelatinases MMP9 and MMP2. Liver sections overlain with 50 μL of 100 μg/mL neutralizing mouse monoclonal antibodies directed against MMP9 (Calbiochem, clone 6-6B), or MMP2 (Millipore, clone CA-4001), or with PBS for 1 hr at room temperature. Tissues were rinsed once with PBS, blotted, and briefly air dried and then overlain with DQ-gelatin (Invitrogen) dissolved to 1 mg/mL in deionized water and then diluted 1:10 in 1% wt/vol low gelling point agarose type VII (Sigma) in PBS. The sections were covered with coverslips, incubated in the dark at room temperature for 20 min, and imaged on an Olympus IX80 inverted microscope fitted with fluorescence optics, using SlideBook™ imaging software (Intelligent Imaging Innovations, Inc., Philadelphia, Pa.; version 5.0). Fluorescence intensity was determined (Table 8). When compared to a saline-treated rat, gelatinase activity was abundantly expressed in granulomatous liver sections obtained from a rat with SCW arthritis.
Next, liver in situ zymography was used to assess the relative presence of active MMP9 in rats dosed with vehicle vs. Example 64. Female Lewis (LEW/N) rats, 5-6 weeks of age (80-100 g) were injected (i.p.) with saline or SCW PG-PS. Commencing on day 25, randomized groups of rats (n=3 rats/group) received vehicle or 20 or 50 mg/kg Example 64 BID by oral gavage. Vehicle consisted of an aqueous mixture containing 2% (v:v) N-methylpyrrolidone, 5% (v:v) glycerine, and 20% (w:v) captisol. Treatment continued daily through the morning of day 28. Four hrs after the AM dose on day 28, rats were sacrificed and livers assessed for active MMP9 by in situ zymography (Table 9). Gelatinase activity was increased markedly in SCW-induced rats, but activity was reduced by approximately 80% in animals treated with 50 mg/kg Example 64.

T1 sequence (P50282 108-708): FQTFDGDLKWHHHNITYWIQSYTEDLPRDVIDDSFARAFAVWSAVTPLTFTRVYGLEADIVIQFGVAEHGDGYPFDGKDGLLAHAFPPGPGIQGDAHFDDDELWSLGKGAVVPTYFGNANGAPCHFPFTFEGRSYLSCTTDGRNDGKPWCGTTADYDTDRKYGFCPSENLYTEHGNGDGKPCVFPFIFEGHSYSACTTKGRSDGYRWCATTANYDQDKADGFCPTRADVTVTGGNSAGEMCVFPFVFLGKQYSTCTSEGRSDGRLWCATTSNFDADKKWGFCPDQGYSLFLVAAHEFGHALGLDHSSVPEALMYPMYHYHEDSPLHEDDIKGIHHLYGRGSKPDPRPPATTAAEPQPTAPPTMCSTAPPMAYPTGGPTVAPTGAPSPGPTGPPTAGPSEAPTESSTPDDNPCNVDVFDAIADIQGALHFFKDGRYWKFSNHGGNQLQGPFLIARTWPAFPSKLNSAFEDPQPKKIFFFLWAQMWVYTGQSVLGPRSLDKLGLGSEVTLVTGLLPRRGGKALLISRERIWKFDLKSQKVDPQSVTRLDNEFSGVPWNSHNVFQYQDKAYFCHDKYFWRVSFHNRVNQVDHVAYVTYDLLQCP

For `Cc1nc(C)c(-c2csc(Nc3cc(S(N)(=O)=O)ccc3OC(C)C)n2)s1` [Example 64, 3-(2′,4′-Dimethyl-[4,5′]bithiazolyl-2-ylamino)-4-isopropoxy-benzenesulfonamide.HBr], the “Intensity (RLU × 10^6) Rat 1” value (20 mg/kg BID oral) was 43.0 RLU × 10^6, the “Intensity (RLU × 10^6) Rat 2” value (20 mg/kg BID oral) was 69.0 RLU × 10^6 and the “Intensity (RLU × 10^6) Rat 3” value (20 mg/kg BID oral) was 53.7 RLU × 10^6. For the same compound, the “Intensity (RLU × 10^6) Mean” value (20 mg/kg BID oral) was 55.2 RLU × 10^6, the “reduction of gelatinase activity in liver” value (50 mg/kg BID oral, Day 25-28) was “approximately 80%” and the “Intensity (RLU × 10^6) Rat 1” value (50 mg/kg BID oral) was 3.2 RLU × 10^6. The “Intensity (RLU × 10^6) Rat 2” value (50 mg/kg BID oral) was 25.6 RLU × 10^6, the “Intensity (RLU × 10^6) Rat 3” value (50 mg/kg BID oral) was 4.5 RLU × 10^6 and the “Intensity (RLU × 10^6) Mean” value (50 mg/kg BID oral) was 11.1 RLU × 10^6.
